The structures appear in SMILES notation. Where only a bound is given, the exact number is not on record here.

The values that follow come from US20090234162A1, “Radioactive Halogen-Labeled Phenyloxyaniline Derivatives” (Taisho Pharmaceutical Co., Ltd., priority 2005, published 2009).

Data set [1] deals with peripheral benzodiazepine receptor (PBR) (Homo sapiens, UniProt P30536). As to conditions: background art, Patent Documents 1 and 2; cited from earlier work.
In data set [2] the target is T1, intracerebral PBR (Homo sapiens, UniProt P30536).
T1 construct: In imaging the intracerebral PBR distribution of a living human brain with positron emission tomograph (PET); host or cells: living human brain (PET)
T1 sequence (P30536 whole entry): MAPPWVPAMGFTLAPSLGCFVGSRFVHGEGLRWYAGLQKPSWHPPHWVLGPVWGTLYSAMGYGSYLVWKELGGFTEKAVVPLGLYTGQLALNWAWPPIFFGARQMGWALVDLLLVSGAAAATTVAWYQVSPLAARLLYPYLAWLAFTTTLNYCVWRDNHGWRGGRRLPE
As to conditions: 11C-labeled ligand, PET, living human brain; cited from earlier work.

Data set [3] has as its target T2, peripheral benzodiazepine receptors (Rattus norvegicus, UniProt P16257).
T2 construct: from tissue
In words: Ex vivo autoradiography of rat brain. Type of data set: in vivo. The method, then:
FIGS. 1 and 2 show cerebral ex vivo autoradiograms taken in 30 minutes after [^131I]2IDAA1106 was administered to a rat. […] In particular, radioactivity levels in the olfactory bulb, choroid plexus and cerebellum decreased remarkably and were equal to or less than 20% of FIG. 1.

Setting [4] is: rat, brain 30 minutes after administration, FIG. 1.

peripheral benzodiazepine receptor (PBR), sequence (P30536 whole entry, species assumed): as the sequence (P30536 whole entry) above

For `COc1ccc(OC)c(CN(C(C)=O)c2cc(F)ccc2Oc2ccccc2)c1` [DAA1106, N-(2,5-dimethoxybenzyl)-N-(5-fluoro-2-phenoxyphenyl)acetamide], in data set [1], the “affinity as PBR ligand” value is “strong affinity” and the “selectivity as PBR ligand” value was “high selectivity”.
As to `COc1ccc(OCCF)c(CN(C(C)=O)c2cc(F)ccc2Oc2ccccc2)c1` [FEDAA1106, N-[2-(2-fluoro)ethyl-5-methoxybenzyl]-N-(5-fluoro-2-phenoxyphenyl)acetamide], in data set [1], the “affinity as PBR ligand” value is given as “strong affinity” and the “selectivity as PBR ligand” value is “high selectivity”.
Consider `COc1ccc(CF)c(CN(C(C)=O)c2cc(F)ccc2Oc2ccccc2)c1` [FMDAA1106, N-(2-fluoromethyl-5-methoxybenzyl)-N-(5-fluoro-2-phenoxyphenyl)acetamide], for which, in data set [1], the “affinity as PBR ligand” value is “strong affinity” and the “selectivity as PBR ligand” value is given as “high selectivity”.
For `CCC(C)N(C)C(=O)c1cc2ccccc2c(-c2ccccc2Cl)n1` (stereo not drawn) [PK 11195, N-methyl-N-(1-methylpropyl)-1-(2-chlorophenyl)-isoquinoline-3-carboxamide], the “accumulation in the brain” value in data set [2] is “extremely low accumulation in the brain”.
For the molecule `COc1ccc([131I])c(CN(C(C)=O)c2cc(F)ccc2Oc2ccccc2)c1` [[^131I]2IDAA1106, N-(2-[^131I]iodo-5-methoxybenzyl)-N-(5-fluoro-2-phenoxyphenyl)acetamide], in data set [3] (conclusion from distribution profile and DAA1106 blocking), the specificity as radioligand result was “specific to peripheral benzodiazepine receptors”. In addition, in data set [3] (rat, 30 minutes, co-administration of DAA1106, FIG. 2 as % of FIG. 1), the “radioactivity levels in the olfactory bulb, choroid plexus and cerebellum relative to FIG. 1” value is not above 20%. For the same molecule, in data set [3] (rat, 30 minutes, co-administration of DAA1106, FIG. 2 versus FIG. 1), the “radioactivity distribution in the whole brain when DAA1106 administered at the same time” value was “decreased in the whole brain”. Besides, in data set [3] (setting [4]), the brain permeability characteristics result is listed as “relatively high brain permeability characteristics”; the “radioactivity distribution at the olfactory bulb, choroid plexus and cerebellum” value is on record as “relatively high radioactivity distribution”.
